Assay [1] has as its target T1, Glucocorticoid receptor (Rattus norvegicus, UniProt P06536).
T1 sequence (P06536 whole entry): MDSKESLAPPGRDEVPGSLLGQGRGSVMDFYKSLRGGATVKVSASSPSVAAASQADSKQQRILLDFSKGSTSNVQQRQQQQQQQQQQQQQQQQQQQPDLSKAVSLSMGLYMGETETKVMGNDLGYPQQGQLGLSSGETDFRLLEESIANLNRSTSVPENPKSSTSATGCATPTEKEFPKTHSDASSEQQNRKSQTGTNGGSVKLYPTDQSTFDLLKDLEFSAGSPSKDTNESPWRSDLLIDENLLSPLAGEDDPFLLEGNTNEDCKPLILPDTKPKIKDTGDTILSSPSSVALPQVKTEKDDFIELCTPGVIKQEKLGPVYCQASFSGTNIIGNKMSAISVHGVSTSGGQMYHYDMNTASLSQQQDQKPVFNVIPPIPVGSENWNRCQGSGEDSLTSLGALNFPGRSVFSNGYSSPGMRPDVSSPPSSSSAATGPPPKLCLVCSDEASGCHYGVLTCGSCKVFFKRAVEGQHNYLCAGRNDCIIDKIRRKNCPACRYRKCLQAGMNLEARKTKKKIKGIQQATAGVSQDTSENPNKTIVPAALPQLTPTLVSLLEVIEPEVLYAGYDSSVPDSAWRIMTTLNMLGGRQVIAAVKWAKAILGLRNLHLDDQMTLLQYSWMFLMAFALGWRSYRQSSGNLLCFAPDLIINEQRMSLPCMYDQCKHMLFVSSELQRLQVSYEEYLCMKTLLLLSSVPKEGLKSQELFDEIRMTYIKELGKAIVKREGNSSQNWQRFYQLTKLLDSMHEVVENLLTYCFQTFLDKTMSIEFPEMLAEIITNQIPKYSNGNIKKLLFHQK
In words: Agonist activity at glucocorticoid receptor in rat INS-1 832/13 cells transfected with CCL2-promoter luciferase plasmid construct assessed as reduction in IL-1 beta induced inflammation by luciferase reporter gene assay. The class given is cell-based. On the technique in general: In a reporter assay the amount or activity of a reporter protein is the signal.

Assay [2] addresses T1, Glucocorticoid receptor. The assay is described as follows: Agonist activity at glucocorticoid receptor in rat INS-1 832/13 cells transfected with 3XGRE-promoter luciferase plasmid construct assessed as induction of receptor transactivation by luciferase reporter gene assay. The class given is cell-based.

Molecules are shown by their SMILES.

The term IC50 denotes the concentration that gives 50% inhibition. What is called EC50 is the concentration giving half of the maximal effect.

Regarding `CC[C@H](O)[C@H]1CCCC2=Cc3c(cnn3-c3ccc(F)cc3)C[C@@]21C`, at Glucocorticoid receptor [1], the half-maximal inhibitory concentration (IC50) is 20 nM. Also, the EC50 at Glucocorticoid receptor [2] is 10000 nM.

Regarding `C[C@]12Cc3cnn(-c4ccc(F)cc4)c3C=C1CCC[C@@H]2[C@@H](O)C1CC1`, the IC50 at Glucocorticoid receptor [1] is 31.6 nM. Further, at Glucocorticoid receptor [2], the EC50 was 1000 nM.

As to `CC[C@@H](O)[C@H]1CCCC2=Cc3c(cnn3-c3ccc(F)cc3)C[C@@]21C`, the IC50 on Glucocorticoid receptor [1] is 15.8 nM. The EC50 on Glucocorticoid receptor [2] was 2510 nM.

As for `C[C@]12Cc3cnn(-c4ccc(F)cc4)c3C=C1CCC[C@@H]2CO`, the IC50 on Glucocorticoid receptor [1] is 5.01 nM. Also, the EC50 on Glucocorticoid receptor [2] is 31.6 nM.

For the molecule `C[C@H](O)[C@H]1CCCC2=Cc3c(cnn3-c3ccc(F)cc3)C[C@@]21C`, on Glucocorticoid receptor [1], the IC50 was 63.1 nM. The EC50 on Glucocorticoid receptor [2] was 2510 nM.

For `CC(C)[C@@H](O)[C@H]1CCCC2=Cc3c(cnn3-c3ccc(F)cc3)C[C@@]21C`, the IC50 at Glucocorticoid receptor [1] is 158 nM. For the same molecule, the EC50 on Glucocorticoid receptor [2] is 1580 nM.

Consider `C[C@]12Cc3cnn(-c4ccc(F)cc4)c3C=C1CCC[C@@H]2[C@@H](O)c1c(F)c(F)c(F)c(F)c1F`, for which, on Glucocorticoid receptor [1], the IC50 is 31.6 nM. The EC50 at Glucocorticoid receptor [2] was 251 nM.

As to `C[C@]12Cc3cnn(-c4ccc(F)cc4)c3C=C1CCC[C@@H]2[C@@H](O)C1CCCC1`, the IC50 on Glucocorticoid receptor [1] was 398 nM. At Glucocorticoid receptor [2], the EC50 was 3160 nM.

With `C[C@@H](O)[C@H]1CCCC2=Cc3c(cnn3-c3ccc(F)cc3)C[C@@]21C`, the IC50 on Glucocorticoid receptor [1] was 0.316 nM. Further, at Glucocorticoid receptor [2], the EC50 was 31.6 nM.

For the molecule `C[C@]12Cc3cnn(-c4ccc(F)cc4)c3C=C1CCC[C@@H]2[C@H](O)c1ccccc1`, on Glucocorticoid receptor [1], the IC50 is 3980 nM. At Glucocorticoid receptor [2], the EC50 was 25.1 nM.

On to `C[C@]12Cc3cnn(-c4ccc(F)cc4)c3C=C1CCC[C@@H]2[C@H](O)C1CC1`, for which, at Glucocorticoid receptor [1], the IC50 is 2000 nM. Besides, the EC50 on Glucocorticoid receptor [2] is 0.501 nM.

With `CC(C)[C@H](O)[C@H]1CCCC2=Cc3c(cnn3-c3ccc(F)cc3)C[C@@]21C`, at Glucocorticoid receptor [1], the IC50 is 0.631 nM. Moreover, at Glucocorticoid receptor [2], the EC50 is 1580 nM.

Consider `C[C@]12Cc3cnn(-c4ccc(F)cc4)c3C=C1CCC[C@@H]2[C@@H](O)c1ccccc1`, for which the IC50 on Glucocorticoid receptor [1] is 20 nM. The EC50 on Glucocorticoid receptor [2] is 63.1 nM.

As for `C[C@]12Cc3cnn(-c4ccc(F)cc4)c3C=C1CCC[C@@H]2[C@H](O)c1c(F)c(F)c(F)c(F)c1F`, at Glucocorticoid receptor [1], the IC50 was 25.1 nM. In addition, the EC50 at Glucocorticoid receptor [2] is 2000 nM.

Source of the values: ChEMBL document CHEMBL5120980, “Stereoisomers of an Aryl Pyrazole Glucocorticoid Receptor Agonist Scaffold Elicit Differing Anti-inflammatory Responses” (ACS Med Chem Lett, 2022).
